According to PubChem BioAssay (NCI):
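96-well plates; 48 h exposure; 5 concentrations. Endpoints by linear interpolation between flanking doses. Not reached: highest tested concentration assigned. GI50: concentration for 50% inhibition of growth. TGI denotes the concentration required for complete inhibition of growth.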

Assays:
Experiment in all cases: NCI tumour cell line growth inhibition, 48 h
NCI-H522 lung = tested on: NCI-H522 lung
UO-31 renal = tested on: UO-31 renal
BT-549 breast = tested on: BT-549 breast
T-47D breast = tested on: T-47D breast
RXF 393 renal = tested on: RXF 393 renal
UACC-62 melanoma = tested on: UACC-62 melanoma
TK-10 renal = tested on: TK-10 renal
COLO 205 colon = tested on: COLO 205 colon
A549 NSCLC = tested on: A549 NSCLC
MDA-MB-231 breast = tested on: MDA-MB-231 breast
HL-60(TB) leukemia = tested on: HL-60(TB) leukemia
OVCAR-4 ovarian = tested on: OVCAR-4 ovarian
SF-539 CNS = tested on: SF-539 CNS
CCRF-CEM leukemia = tested on: CCRF-CEM leukemia
NCI-H460 lung = tested on: NCI-H460 lung
HCT-15 colon = tested on: HCT-15 colon
SF-268 CNS = tested on: SF-268 CNS
RPMI-8226 leukemia = tested on: RPMI-8226 leukemia
MCF7 breast = tested on: MCF7 breast
NCI-H226 lung = tested on: NCI-H226 lung
SK-MEL-5 melanoma = tested on: SK-MEL-5 melanoma
HOP-92 NSCLC = tested on: HOP-92 NSCLC
K-562 leukemia = tested on: K-562 leukemia
CAKI-1 renal = tested on: CAKI-1 renal
SW-620 colon = tested on: SW-620 colon
SNB-75 CNS = tested on: SNB-75 CNS
HOP-62 NSCLC = tested on: HOP-62 NSCLC
786-0 renal = tested on: 786-0 renal
UACC-257 melanoma = tested on: UACC-257 melanoma
MDA-MB-468 breast = tested on: MDA-MB-468 breast
SK-OV-3 ovarian = tested on: SK-OV-3 ovarian
EKVX NSCLC = tested on: EKVX NSCLC
SNB-19 CNS = tested on: SNB-19 CNS
MOLT-4 leukemia = tested on: MOLT-4 leukemia
HCC-2998 colon = tested on: HCC-2998 colon
LOX IMVI melanoma = tested on: LOX IMVI melanoma
MALME-3M melanoma = tested on: MALME-3M melanoma
OVCAR-3 ovarian = tested on: OVCAR-3 ovarian
SK-MEL-28 melanoma = tested on: SK-MEL-28 melanoma
SN12C renal = tested on: SN12C renal
OVCAR-5 ovarian = tested on: OVCAR-5 ovarian
A498 renal = tested on: A498 renal
ACHN renal = tested on: ACHN renal
MDA-MB-435 = tested on: MDA-MB-435
KM12 colon = tested on: KM12 colon
SK-MEL-2 melanoma = tested on: SK-MEL-2 melanoma
NCI/ADR-RES ovarian = tested on: NCI/ADR-RES ovarian
U251 CNS = tested on: U251 CNS
HS 578T breast = tested on: HS 578T breast
PC-3 prostate = tested on: PC-3 prostate
DU-145 prostate = tested on: DU-145 prostate
NCI-H23 lung = tested on: NCI-H23 lung
HT29 colon = tested on: HT29 colon
M14 melanoma = tested on: M14 melanoma
HCT-116 colon = tested on: HCT-116 colon
OVCAR-8 ovarian = tested on: OVCAR-8 ovarian
IGROV1 ovarian = tested on: IGROV1 ovarian
SF-295 CNS = tested on: SF-295 CNS

**Q.** What does the source list for Cc1ccc(S(=O)(=O)c2nc(S(=O)(=O)c3ccc(C)cc3)c(Cl)s2)cc1?
**A.** GI50 (NCI-H522 lung): > 100 µM; TGI (NCI-H522 lung): > 100 µM; GI50 (UO-31 renal): > 100 µM; TGI (UO-31 renal): > 100 µM; GI50 (BT-549 breast): > 100 µM; TGI (BT-549 breast): > 100 µM; GI50 (T-47D breast): > 100 µM; TGI (T-47D breast): > 100 µM; GI50 (RXF 393 renal): > 100 µM; TGI (RXF 393 renal): > 100 µM; GI50 (UACC-62 melanoma): > 100 µM; TGI (UACC-62 melanoma): > 100 µM; GI50 (TK-10 renal): > 100 µM; TGI (TK-10 renal): > 100 µM; GI50 (COLO 205 colon): > 100 µM; TGI (COLO 205 colon): > 100 µM; GI50 (A549 NSCLC): > 100 µM; TGI (A549 NSCLC): > 100 µM; GI50 (MDA-MB-231 breast): > 100 µM; TGI (MDA-MB-231 breast): > 100 µM; GI50 (HL-60(TB) leukemia): > 100 µM; TGI (HL-60(TB) leukemia): > 100 µM; GI50 (OVCAR-4 ovarian): > 100 µM; TGI (OVCAR-4 ovarian): > 100 µM; GI50 (SF-539 CNS): > 100 µM; TGI (SF-539 CNS): > 100 µM; GI50 (CCRF-CEM leukemia): > 100 µM; TGI (CCRF-CEM leukemia): > 100 µM; GI50 (NCI-H460 lung): > 100 µM; TGI (NCI-H460 lung): > 100 µM; GI50 (HCT-15 colon): > 100 µM; TGI (HCT-15 colon): > 100 µM; GI50 (SF-268 CNS): > 100 µM; TGI (SF-268 CNS): > 100 µM; GI50 (RPMI-8226 leukemia): > 100 µM; TGI (RPMI-8226 leukemia): > 100 µM; GI50 (MCF7 breast): > 100 µM; TGI (MCF7 breast): > 100 µM; GI50 (NCI-H226 lung): > 100 µM; TGI (NCI-H226 lung): > 100 µM; GI50 (SK-MEL-5 melanoma): > 100 µM; TGI (SK-MEL-5 melanoma): > 100 µM; GI50 (HOP-92 NSCLC): > 100 µM; TGI (HOP-92 NSCLC): > 100 µM; GI50 (K-562 leukemia): > 100 µM; TGI (K-562 leukemia): > 100 µM; GI50 (CAKI-1 renal): > 100 µM; TGI (CAKI-1 renal): > 100 µM; GI50 (SW-620 colon): > 100 µM; TGI (SW-620 colon): > 100 µM; GI50 (SNB-75 CNS): > 100 µM; TGI (SNB-75 CNS): > 100 µM; GI50 (HOP-62 NSCLC): > 100 µM; TGI (HOP-62 NSCLC): > 100 µM; GI50 (786-0 renal): > 100 µM; TGI (786-0 renal): > 100 µM; GI50 (UACC-257 melanoma): > 100 µM; TGI (UACC-257 melanoma): > 100 µM; GI50 (MDA-MB-468 breast): > 100 µM; TGI (MDA-MB-468 breast): > 100 µM; GI50 (SK-OV-3 ovarian): > 100 µM; TGI (SK-OV-3 ovarian): > 100 µM; GI50 (EKVX NSCLC): > 100 µM; TGI (EKVX NSCLC): > 100 µM; GI50 (SNB-19 CNS): > 100 µM; TGI (SNB-19 CNS): > 100 µM; GI50 (MOLT-4 leukemia): > 100 µM; TGI (MOLT-4 leukemia): > 100 µM; GI50 (HCC-2998 colon): > 100 µM; TGI (HCC-2998 colon): > 100 µM; GI50 (LOX IMVI melanoma): > 100 µM; TGI (LOX IMVI melanoma): > 100 µM; GI50 (MALME-3M melanoma): > 100 µM; TGI (MALME-3M melanoma): > 100 µM; GI50 (OVCAR-3 ovarian): > 100 µM; TGI (OVCAR-3 ovarian): > 100 µM; GI50 (SK-MEL-28 melanoma): > 100 µM; TGI (SK-MEL-28 melanoma): > 100 µM; GI50 (SN12C renal): > 100 µM; TGI (SN12C renal): > 100 µM; GI50 (OVCAR-5 ovarian): > 100 µM; TGI (OVCAR-5 ovarian): > 100 µM; GI50 (A498 renal): > 100 µM; TGI (A498 renal): > 100 µM; GI50 (ACHN renal): > 100 µM; TGI (ACHN renal): > 100 µM; GI50 (MDA-MB-435): > 100 µM; TGI (MDA-MB-435): > 100 µM; GI50 (KM12 colon): > 100 µM; TGI (KM12 colon): > 100 µM; GI50 (SK-MEL-2 melanoma): > 100 µM; TGI (SK-MEL-2 melanoma): > 100 µM; GI50 (NCI/ADR-RES ovarian): > 100 µM; TGI (NCI/ADR-RES ovarian): > 100 µM; GI50 (U251 CNS): > 100 µM; TGI (U251 CNS): > 100 µM; GI50 (HS 578T breast): > 100 µM; TGI (HS 578T breast): > 100 µM; GI50 (PC-3 prostate): > 100 µM; TGI (PC-3 prostate): > 100 µM; GI50 (DU-145 prostate): > 100 µM; TGI (DU-145 prostate): > 100 µM; GI50 (NCI-H23 lung): > 100 µM; TGI (NCI-H23 lung): > 100 µM; GI50 (HT29 colon): > 100 µM; TGI (HT29 colon): > 100 µM; GI50 (M14 melanoma): > 100 µM; TGI (M14 melanoma): > 100 µM; GI50 (HCT-116 colon): > 100 µM; TGI (HCT-116 colon): > 100 µM; GI50 (OVCAR-8 ovarian): > 100 µM; TGI (OVCAR-8 ovarian): > 100 µM; GI50 (IGROV1 ovarian): > 100 µM; TGI (IGROV1 ovarian): > 100 µM; GI50 (SF-295 CNS): > 100 µM; TGI (SF-295 CNS): > 100 µM
